# According to publication PMC11242382, “Rapid Screening of Chemical Components in Salvia miltiorrhiza with the Potential to Inhibit Skin Inflammation” (International Journal of Molecular Sciences, 2024):
# Columns and labels:
# Type in all cases: biochemical
# HAase [1] = molecular target: T1, HAase (Bos taurus, UniProt Q2YDK3); experiment: Enzyme kinetics study (Lineweaver–Burk plots); conditions: for type of HAase inhibition: Lineweaver–Burk plots; for Kis: from Y-intercept of double inverse curve vs inhibitor concentration
# T1 sequence (Q2YDK3 36-553): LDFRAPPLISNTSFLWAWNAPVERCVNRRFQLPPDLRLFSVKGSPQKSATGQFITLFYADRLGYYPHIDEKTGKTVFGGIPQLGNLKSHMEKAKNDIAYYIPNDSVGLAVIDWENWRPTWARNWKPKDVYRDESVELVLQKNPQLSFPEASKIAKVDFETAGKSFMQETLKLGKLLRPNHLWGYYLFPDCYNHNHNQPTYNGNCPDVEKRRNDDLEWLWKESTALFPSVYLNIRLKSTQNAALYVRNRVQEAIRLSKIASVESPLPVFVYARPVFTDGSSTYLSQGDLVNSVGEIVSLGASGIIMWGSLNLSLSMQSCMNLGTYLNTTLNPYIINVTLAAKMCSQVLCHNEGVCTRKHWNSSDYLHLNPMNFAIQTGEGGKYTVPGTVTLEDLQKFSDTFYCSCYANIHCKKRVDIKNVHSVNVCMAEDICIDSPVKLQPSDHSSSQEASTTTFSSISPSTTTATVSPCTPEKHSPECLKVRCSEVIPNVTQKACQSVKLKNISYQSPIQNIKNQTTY
# Description: We conducted enzyme kinetic studies to explore the inhibitory patterns of the ligands of HAase, employing a method that was previously documented. Based on the earlier HAase inhibition assay, 5 different concentrations of ligands (0, 1/2 × IC50, 1 × IC50, 3/2 × IC50, and 2 × IC50) were reacted with 5 different concentrations of sodium hyaluronate (500, 750, 1000, 1250, and 1500 µM). The reaction rate was monitored within the initial 30 min post-initiation. Grouping the samples by concentration, we derived the corresponding regression equations to construct the Lineweaver–Burk diagram, with the reciprocal of the average reaction rate (1/V) on the ordinate and the reciprocal of the substrate concentration (1/[S]) on the abscissa. From this diagram, we extracted the reciprocal of the transverse intercept (Km) and longitudinal intercept (Vmax) to compute the values of the constants Ki and Kis.
# HAase [2] = molecular target: T1, HAase; experiment: Combined effects of SAB and RA on HAase (median-effect equation, combination index); conditions: for Fa (%): SAB-only group
# Description: (§1) The inhibition assay of the ligands against HAase was performed, following the Elson–Morgan modified method, and the working concentration of the sample was determined to be 0.5 mg/mL [35, 36, 37]. The assays took place in 10 mL centrifuge tubes. Firstly, 0.5 mL of sample solution and 0.5 mL of HAase were added (500 U/mL) to the tube in a 37 °C water bath for 20 min. Then, 0.1 mL of CaCl2 (2.5 mol/L) solution was added to the tube in a 37 °C water bath for 20 min. Next, 0.5 mL of sodium hyaluronate solution (0.5 mg/mL) was added to the tube at 37 °C in a water bath for 40 min. Afterward, we added 0.5 mL of distilled water, 0.1 mL of NaOH solution, and 0.5 mL of acetylacetone (composed of 50 mL of Na2CO3 (1 M) and 3.5 mL of acetylacetone) to the tube. This mixture was kept in the 37 °C water bath for 15 min and then transferred to an ice bath for 10 min, followed by 10 min at room temperature. Afterward, 1 mL of P-DAB and 4.3 mL of ethanol were added to it. The absorbance was measured at 530 nm after allowing the solution to stand for 30 min. The HAase inhibition rate (R) was calculated using the following formula:(1) R=A0−A/A0×100% where A0 is the absorbance of the control group (without the sample, enzyme solution, and sodium hyaluronate as the drug control), and A is the absorbance of the sample group (with the sample, no enzyme solution, and sodium hyaluronate as the blank control); ascorbic acid was the positive control.
# The Fa value for each group is Fa (%) = R* (where R* denotes the mean value of inhibition in the administered group). Neutralization graphs (y = log Fa/Fu, x = logD, and y = ax + b) and the neutralization of the two components in monotherapy and combination were calculated based on the neutralization equation Fa/Fu = (D/Dm)^m. In this equation, Fa is the drug effect, Fu = 1 − Fa, D is the drug concentration, Dm is the neutralization concentration, that is, the concentration of the drug when it exerts 50% of its effect, and m is the slope of the equation of the neutralization curve. Dose was calculated using (logDm = −b/a, a = m) and the corresponding parameters of the equation (slope m and correlation coefficient r, etc.). Then, the CI value of the combined effect was calculated according to the following formula:(2) CI=D1/Dx1+D2/Dx2 where D1 and D2 are the concentrations of each of the two drugs causing the x effect when combined, and Dx1 and Dx2 are the concentrations of each of the two drugs causing the x effect when used alone. […] The quantitative effect-relationship curves of the two drugs individually and after combination were plotted using GraphPad Prism V5.0, with the drug concentration as the horizontal coordinate and the Fa value as the vertical coordinate. The data of the combined action group were simulated using Compusyn V1.0 and the neutral effect equation. The Fa-CI curves were plotted using GraphPad Prism V5.0, with the simulated Fa on the horizontal axis and its corresponding CI value on the vertical axis. This comprehensive analysis aimed to thoroughly evaluate the effects of the 2 drugs following their combined action, based on the provided data.
# HAase [3] = molecular target: T1, HAase; experiment: HAase inhibition assay (Elson–Morgan modified method)
# Description: as §1, with “The HAase inhibition rate (R) was calculated using the following formula:(1) R=A0−A/A0×100% where A0 is the absorbance of the control group (without the sample, enzyme solution, and sodium hyaluronate as the drug control), and A is the absorbance of the sample group (with the sample, no enzyme solution, and sodium hyaluronate as the blank control); ascorbic acid was the positive control.” left out
Compound,type of HAase inhibition (HAase [1]),Kis (HAase [1]),m (slope of the neutralization curve equation) (HAase [2]; median-effect equation),Fa (%) (HAase [2]; 0.006 mg/mL),Fa (%) (HAase [2]; 0.03 mg/mL),Fa (%) (HAase [2]; 0.06 mg/mL),Fa (%) (HAase [2]; 0.15 mg/mL),Fa (%) (HAase [2]; 0.3 mg/mL),"Dm (median effective concentration) (HAase [2]; median-effect equation, concentration at 50% of effect)",IC50 against HAase (HAase [3]),"Inhibition Rate (%) against HAase (HAase [3]; sample concentration 0.5 mg/mL, mean ± SD (n = 3))"
"O=C(/C=C/c1ccc(O)c(O)c1)O[C@H](Cc1ccc(O)c(O)c1)C(=O)O [RA, rosmarinic acid]",mixed-type inhibitors,4.60 µM,0.6904,,,,,,,,
salvianolic acid B [SAB],mixed-type inhibitors,0.96 µM,0.6928,8.30%,18.07%,22.16%,40.98%,59.08%,0.2424 mg/mL,204.15 ± 1.08 µg/mL,68.27 ± 0.71%
